According to patent US20250019772A1, “Method and System of Augmenting Cancer Therapy” (UNIVERSITY OF MIAMI, priority 2023, published 2025):

How the values were obtained:
[1] = system: DNase II; test: Nuclease protection assay of Ccl5-DNA complex; assay type: biochemical; settings: 1 unit DNase II, 37° C., 20 mins
[2] = system: WT macrophages (WTØ); test: Phagocytosis of irradiated cells by WT macrophages (WTØ), Cxcl10 qPCR, with CCL5, CCL5 antibody or CCR inhibitors; assay type: cell-based, mouse; settings: exogenously added recombinant CCL5 100 ng/mL 2 h, irradiated B16 cells 50 Gy
Protocol: (B) B16-WT or B16-SKO cells were irradiated using X-rays at 50 Gy for 3 days. 50 μL of the conditioned media from the cells was added to WTØ followed by adding the irradiated B16-WT and B16-SKO cells with the treated APC's for phagocytosis analysis. qPCR analysis was performed for Cxcl10 expression. (C) qPCR analysis of Cxcl10 in WTØ following the phagocytosis of irradiated MEF-WT cells in the presence of CCL5 antibody or IgG control (1 μg) at 100 ng/mL for 2 h prior to the phagocytosis. (D) MEF-WT cells were treated with a cocktail of 100 nM CCR inhibitors (Bx471, SB297006, AZD2098 and Maraviroc). The MEF-WT cells treated with the inhibitors (CCRi) were fed to WTØ for 6 h and Cxcl10 expression examined. (E) MEF WT, SKO or CCL5 KO were transfected with 3 μg/mL ISD for 6 h followed by measuring Ifnβ1, Cxcl10 or Ccl5 expression by qPCR analysis. (F) MEF WT, SKO or CCL5 KO were transfected with 3 μg/mL ISD for 6 h and then examined for STING activity by immunoblotting analysis. […] Immunofluorescence to detect STING translocation was monitored by confocal microscope, according to an embodiment of the present invention; […]
Macrophages were washed with 0.02% EDTA/PBS twice followed by incubation with 0.02% EDTA/PBS at 37C incubator for 10 mins. […] Percentage of phagocytosed cells were assessed by flow cytometry using a LSRII instrument (Becton Dickinson, USA).

[3] = system: ISD (dsDNA); test: Binding of CCL5 to DNA (Picogreen, EMSA); settings: ISD 10 μg/mL
Text: SIEVES were isolated from irradiated (X-ray at 50 Gy for 3 days) WT, SKO, or CCL5 MEFs as well as B16-WT, B16-SKO or B16-CCL5KO cells by centrifugation. (A) Immunoblot analysis of centrifuged fractions using antibodies to STING, CD81, LC3, and Lamin A/C. (B) Size distribution evaluation of endosomal vesicles isolated from B16-WT. B16-SKO, and B16-CCL5 KO cells following irradiation with X-rays at 50 Gy. (C) Evaluation of number of endosomal vesicles in (B). (D) Immunoblotting analysis of endosomal/exosomal markers in endosomal vesicles in (B). (E) cGAMP ELISA analysis of WT DC. SKO DC, and CKO BMDC's treated with 30 μg of SIEVE's isolated from MEF WT, MEF SKO, MEF CKO or MEF CCL5 KO. (F) qPCR analysis of Cxcl10 in WT DC treated with SIEVE's from (E). […] (G) Tumor volumes were measured every other day for 2 weeks. […]
(B) B16-WT. […] DNA was purified with phenol-chloroform and CCL5 bound ISD was analyzed by qPCR analysis. (C) DNA in SIEVE's isolated from MEF-WT, SKO and CCL5 KO with or without X-ray at 50 Gy were measured by Nanodrop, Picogreen staining and visualized by agarose gel electrophoresis and dot blot analysis, according to an embodiment of the present invention; and
ISD90 was premixed with CCL5 and negative control molecules at different concentration in 100 μL and analyzed by a fluorimeter after staining with Picogreen. […]

[4] = system: CD11+ BMDC's; test: Phagocytosis of irradiated MEFs treated with autophagy inhibitors by BMDC's (qPCR IFNβ1, Cxcl10); assay type: cell-based, mouse; settings: BafA1 50 nM; 3-MA 2.5 mM

## Ccl5: recombinant CCL5 protein, exogenously added chemokine
[1]
  protection against DNA degradation by DNaseII: conferred protection against DNA degradation
[2]
  rescue of immunogenicity of Ccl5 KO or STING KO cells: did not appear to significantly rescue the immunogenicity
[3]
  association of Ccl5 with DNA: associated with

## Cn1cnc(N)c2ncnc1-2 [3-MA, 3-Methyladenine]
[4]
  immunogenicity of irradiated MEF cells (ability to activate APC's): suppressed the immunogenicity

## CO/C1=C\C(C)=C\[C@@H](C)[C@@H](O)[C@@H](C)C/C(C)=C/C=C/[C@H](OC)[C@@H]([C@@H](C)[C@@H](O)[C@H](C)[C@@]2(O)C[C@@H](O)[C@H](C)[C@@H](C(C)C)O2)OC1=O [BafA1, bafilomycin A1]
[4]
  immunogenicity of irradiated MEF cells (ability to activate APC's): suppressed the immunogenicity
